Key:
Ac-AChBP = Ac-AChBP (Aplysia californica, UniProt Q8WSF8); assay: biochemical; format: binding
Ls-AChBP = Ls-AChBP (Lymnaea stagnalis, UniProt P58154); assay: biochemical; format: binding
human α3β2 nAChR = human α3β2 nAChR (Homo sapiens, UniProt P17787+P32297); assay: cell-based; format: cell-based
Chain of human α3β2 nAChR (P32297 32-505 limits assumed): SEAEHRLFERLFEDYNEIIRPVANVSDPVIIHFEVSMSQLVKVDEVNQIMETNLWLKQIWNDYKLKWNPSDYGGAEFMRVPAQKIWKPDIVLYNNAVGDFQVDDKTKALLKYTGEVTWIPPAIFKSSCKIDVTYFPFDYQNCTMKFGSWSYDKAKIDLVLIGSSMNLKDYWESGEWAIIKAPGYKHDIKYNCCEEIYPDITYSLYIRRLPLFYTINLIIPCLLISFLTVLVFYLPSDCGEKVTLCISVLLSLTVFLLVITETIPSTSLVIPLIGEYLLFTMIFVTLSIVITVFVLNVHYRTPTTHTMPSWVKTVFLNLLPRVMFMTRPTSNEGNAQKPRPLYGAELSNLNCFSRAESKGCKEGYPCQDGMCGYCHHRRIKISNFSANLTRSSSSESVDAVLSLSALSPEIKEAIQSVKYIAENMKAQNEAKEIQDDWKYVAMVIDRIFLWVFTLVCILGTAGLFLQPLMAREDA
Chain of human α3β2 nAChR (P17787 26-502 limits assumed): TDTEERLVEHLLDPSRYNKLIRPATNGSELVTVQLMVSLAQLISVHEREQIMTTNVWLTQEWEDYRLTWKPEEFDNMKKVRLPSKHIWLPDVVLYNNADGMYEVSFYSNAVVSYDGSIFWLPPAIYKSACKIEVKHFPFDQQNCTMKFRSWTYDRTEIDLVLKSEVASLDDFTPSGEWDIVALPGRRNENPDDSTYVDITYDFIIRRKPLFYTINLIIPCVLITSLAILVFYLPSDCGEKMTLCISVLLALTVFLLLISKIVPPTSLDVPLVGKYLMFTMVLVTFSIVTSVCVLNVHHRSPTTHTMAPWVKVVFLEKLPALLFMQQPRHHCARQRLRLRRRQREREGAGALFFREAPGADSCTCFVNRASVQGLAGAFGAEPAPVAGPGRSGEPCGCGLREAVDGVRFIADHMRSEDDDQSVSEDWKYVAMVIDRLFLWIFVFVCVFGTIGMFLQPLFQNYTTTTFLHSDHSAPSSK

Chain of Ls-AChBP (P58154 20-229 limits assumed): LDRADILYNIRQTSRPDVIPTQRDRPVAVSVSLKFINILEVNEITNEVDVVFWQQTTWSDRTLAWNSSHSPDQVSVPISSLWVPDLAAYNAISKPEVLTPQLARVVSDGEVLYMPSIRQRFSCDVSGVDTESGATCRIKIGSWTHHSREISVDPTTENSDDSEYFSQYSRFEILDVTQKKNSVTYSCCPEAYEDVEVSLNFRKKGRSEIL
Chain of Ac-AChBP (Q8WSF8 20-236 limits assumed): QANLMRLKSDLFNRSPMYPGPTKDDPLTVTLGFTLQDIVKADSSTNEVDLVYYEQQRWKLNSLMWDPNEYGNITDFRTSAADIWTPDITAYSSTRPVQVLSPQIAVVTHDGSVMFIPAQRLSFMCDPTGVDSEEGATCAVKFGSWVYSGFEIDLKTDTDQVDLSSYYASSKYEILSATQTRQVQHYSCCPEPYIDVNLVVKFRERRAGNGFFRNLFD

`CC[C@H](C)[C@@H]1NC(=O)[C@H](Cc2cnc[nH]2)NC(=O)[C@H](CCC(N)=O)NC(=O)[C@H](CC(N)=O)NC(=O)[C@H](CC(N)=O)NC(=O)CNC(=O)[C@H](C)NC(=O)[C@@H]2CSSC[C@H](NC(=O)CN)C(=O)N[C@@H](CSSC[C@@H](C(N)=O)NC1=O)C(=O)N[C@@H](CO)C(=O)N[C@@H](Cc1cnc[nH]1)C(=O)N1CCC[C@H]1C(=O)N[C@@H](C)C(=O)N2` [GIC, α-conotoxin GIC] showed an IC50 (Ac-AChBP) of 29 ± 2 nM, a Ki (Ls-AChBP) of 220 ± 10 nM and an IC50 (human α3β2 nAChR) of 1.13 nM.

Reference: PMC4772116 (Scientific Reports, 2016)
